Data: the supplement of paper PMC11061612

Columns and labels:
[1] = compound: CN(CC[C@H](CSC1=CC=CC=C1)NC2=C(C=C(C=C2)S(=O)(=O)NC(=O)C3=CC=C(C=C3)N4CCC(CC4)[C@H](C5=CC=CC=C5C6=CC=C(C=C6)Cl)O)S(=O)(=O)C(F)(F)F)CCO [AZD4320]; settings: max 1 µM
Outline: (§1)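 Cancer cell lines were dosed for 72 hours (final DMSO typically 0.2%) after 24 hours at 37°C and 5% CO2 in 1536-well plates containing 7.5 μl DMEM/F12 or RPMI with 10% FBS. Viability came from CellTiter-Glo 2.0 luminescence, scaled between blank-well and DMSO-well means, and dose responses were fitted to a two-parameter logistic curve with a non-linear mixed effects model. The single-agent IC50 was obtained from this fit.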

[2] = compound: C[C@@H](c1ccc2nccn2c1)n1nnc2ncc(-c3cnn(C)c3)nc21 [Savolitinib]; settings: max 1 µM
Outline: as §1

[3] = compound: CCN(CCO)CCCOc1ccc2c(Nc3cc(CC(=O)Nc4cccc(F)c4)[nH]n3)ncnc2c1 [AZD2811]; settings: max 1 µM
Outline: as §1

[4] = compound: COc1cccc(OCCCN)c1-c1cc(Nc2cnc(C#N)cn2)n[nH]1 [Prexasertib]; settings: max 1 µM
Outline: as §1

[5] = compound: C[C@@H](Nc1cc(F)cc(F)c1)c1cc(C(=O)N(C)C)cc2c(=O)cc(N3CCOCC3)oc12 [AZD8186]; settings: max 3 µM
Outline: as §1

[6] = compound: CC(=O)Nc1cccc(-n2c(=O)n(C3CC3)c(=O)c3c(Nc4ccc(I)cc4F)n(C)c(=O)c(C)c32)c1 [Trametinib]; settings: max 1 µM
Outline: as §1

[7] = compound: CC1=C(C(=CC=C1)Cl)NC(=O)C2=CN=C(S2)NC3=CC(=NC(=N3)C)N4CCN(CC4)CCO [Dasatinib]; settings: max 2 µM
Outline: as §1

[8] = compound: C=CCn1c(=O)c2cnc(Nc3ccc(N4CCN(C)CC4)cc3)nc2n1-c1cccc(C(C)(C)O)n1 [AZD1775]; settings: max 3 µM
Outline: as §1

[9] = compound: O=C(c1cc(Cc2n[nH]c(=O)c3ccccc23)ccc1F)N1CCN(C(=O)C2CC2)CC1 [Olaparib]; settings: max 10 µM
Outline: as §1

[10] = compound: CS(=O)(=O)CCNCc1ccc(-c2ccc3ncnc(Nc4ccc(OCc5cccc(F)c5)c(Cl)c4)c3c2)o1 [Lapatinib]; settings: max 10 µM
Outline: as §1

[11] = compound: C[C@@H]1COCCN1C2=NC(=NC(=C2)C3(CC3)[S@](=N)(=O)C)C4=C5C=CNC5=NC=C4 [AZD6738]; settings: max 10 µM
Outline: as §1

[12] = compound: C1CN(CCC1(C(=O)N[C@@H](CCO)C2=CC=C(C=C2)Cl)N)C3=NC=NC4=C3C=CN4 [Capivasertib]; settings: max 10 µM
Outline: as §1

[13] = compound: COc1cc(Nc2ncc3c(n2)-c2ccc(Cl)cc2C(c2c(F)cccc2OC)=NC3)ccc1C(=O)O [Alisertib]; settings: max 10 µM
Outline: as §1

[14] = compound: Cc1cc2ncnn2cc1Nc1ncc2c(n1)n(C1CCOCC1)c(=O)n2C [AZD7648]; settings: max 10 µM
Outline: as §1

[15] = compound: Cc1nc(-c2cn3c(n2)-c2ccc(-c4cnn(C(C)(C)C(N)=O)c4)cc2OCC3)n(C(C)C)n1 [Taselisib]; settings: max 10 µM
Outline: as §1

[16] = compound: Cn1cnc2c(F)c(Nc3ccc(Br)cc3Cl)c(C(=O)NOCCO)cc21 [Selumetinib]; settings: max 10 µM
Outline: as §1

[17] = compound: COc1nnc2ccc(N3CCC(c4ccc(OCCN5CCN(C)C(=O)[C@H]5C)cc4)CC3)nn12 [AZD5153]; settings: max 1 µM
Outline: as §1

[18] = compound: COc1cccc2c1C(=O)c1c(O)c3c(c(O)c1C2=O)C[C@@](O)(C(=O)CO)C[C@@H]3O[C@H]1C[C@H](N)[C@H](O)[C@H](C)O1 [Doxorubicin]; settings: max 1 µM
Outline: as §1

[19] = compound: CC1=CN2[C@@H](C1)C=NC3=CC(=C(C=C3C2=O)OC)OCCCCCOC4=C(C=C5C(=C4)N=C[C@@H]6CC(=CN6C5=O)C)OC [SG3199]; settings: max 0.001 µM
Outline: as §1

[20] = compound: CC(=O)c1c(C)c2cnc(Nc3ccc(N4CCNCC4)cn3)nc2n(C2CCCC2)c1=O [Palbociclib]; settings: max 10 µM
Outline: as §1

[21] = compound: COc1cc2ncnc(Nc3ccc(F)c(Cl)c3)c2cc1OCCCN1CCOCC1 [Gefitinib]; settings: max 10 µM
Outline: as §1

[22] = compound: CN(C)CCCOc1ccc(-c2ccc3ncc4c(c3c2)n(C2CCOCC2)c(=O)n4C)cn1 [AZD0156]; settings: max 3 µM
Outline: as §1

[23] = compound: Cc1c2c(nn1C)CSCc1cc(n(C)n1)CSc1cc(c3ccccc3c1)OCCCc1c(C(=O)O)n(C)c3c-2c(Cl)ccc13 [AZD5991]; settings: max 1 µM
Outline: as §1

[24] = compound: CCc1c2c(nc3ccc(O)cc13)-c1cc3c(c(=O)n1C2)COC(=O)[C@]3(O)CC [SN-38]; settings: max 0.3 µM
Outline: as §1

[25] = compound: CC1(C)CCC(CN2CCN(c3ccc(C(=O)NS(=O)(=O)c4ccc(NCC5CCOCC5)c([N+](=O)[O-])c4)c(Oc4cnc5[nH]ccc5c4)c3)CC2)=C(c2ccc(Cl)cc2)C1 [Venetoclax]; settings: max 1 µM
Outline: as §1

[26] = compound: C[C@@H](Oc1cc(-c2cnn(C3CCNCC3)c2)cnc1N)c1c(Cl)ccc(F)c1Cl [Crizotinib]; settings: max 10 µM
Outline: as §1

[27] = compound: CC(C)n1c(=O)n(C)c2cnc3cc(F)c(-c4ccc(OCCCN5CCCCC5)nc4)cc3c21 [AZD1390]; settings: max 0.3 µM
Outline: as §1

Cell Line | IC50, cell viability 72 h [1] | IC50, cell viability 72 h [2] | IC50, cell viability 72 h [3] | IC50, cell viability 72 h [4] | IC50, cell viability 72 h [5] | IC50, cell viability 72 h [6] | IC50, cell viability 72 h [7] | IC50, cell viability 72 h [8] | IC50, cell viability 72 h [9] | IC50, cell viability 72 h [10] | IC50, cell viability 72 h [11] | IC50, cell viability 72 h [12] | IC50, cell viability 72 h [13] | IC50, cell viability 72 h [14] | IC50, cell viability 72 h [15] | IC50, cell viability 72 h [16] | IC50, cell viability 72 h [17] | IC50, cell viability 72 h [18] | IC50, cell viability 72 h [19] | IC50, cell viability 72 h [20] | IC50, cell viability 72 h [21] | IC50, cell viability 72 h [22] | IC50, cell viability 72 h [23] | IC50, cell viability 72 h [24] | IC50, cell viability 72 h [25] | IC50, cell viability 72 h [26] | IC50, cell viability 72 h [27]
OVCAR-3 (Ovarian Carcinoma) | > 1 µM | > 1 µM | > 1 µM | 0.198 µM | > 3 µM | > 1 µM | > 2 µM | 1.6 µM | > 10 µM | > 10 µM | > 10 µM | > 10 µM | > 10 µM | > 10 µM | 5.63 µM | > 10 µM | 0.475 µM | > 1 µM | > 0.001 µM | > 10 µM | > 10 µM | > 3 µM | > 1 µM | 0.231 µM | > 1 µM | > 10 µM | > 0.3 µM
Raji (Burkitt's Lymphoma) | > 1 µM | > 1 µM | > 1 µM | 0.0187 µM | > 3 µM | > 1 µM | > 2 µM | 0.472 µM | > 10 µM | > 10 µM | 3.81 µM | > 10 µM | > 10 µM | > 10 µM | > 10 µM | > 10 µM | 0.371 µM | 0.114 µM | > 0.001 µM | > 10 µM | > 10 µM | > 3 µM | 0.506 µM | 0.0043 µM | > 1 µM | > 10 µM | > 0.3 µM
SUP-M2 (T-Cell Non-Hodgkin's Lymphoma) | 0.805 µM | > 1 µM | 0.0226 µM | 0.0165 µM | > 3 µM | > 1 µM | > 2 µM | 0.316 µM | 5.4 µM | 6.55 µM | 1.01 µM | > 10 µM | 0.0577 µM | > 10 µM | > 10 µM | > 10 µM | 0.0304 µM | 0.0547 µM | > 0.001 µM | 6.52 µM | > 10 µM | > 3 µM | 0.117 µM | 0.00156 µM | > 1 µM | 0.475 µM | > 0.3 µM
UACC-257 (Melanoma) | > 1 µM | > 1 µM | > 1 µM | > 1 µM | > 3 µM | 0.0412 µM | > 2 µM | > 3 µM | > 10 µM | > 10 µM | > 10 µM | > 10 µM | > 10 µM | > 10 µM | > 10 µM | 2.33 µM | > 1 µM | > 1 µM | > 0.001 µM | > 10 µM | > 10 µM | > 3 µM | > 1 µM | > 0.3 µM | > 1 µM | > 10 µM | > 0.3 µM
TUR (Acute Myeloid Leukemia) | > 1 µM | > 1 µM | > 1 µM | 0.0164 µM | > 3 µM | > 1 µM | > 2 µM | 0.575 µM | > 10 µM | > 10 µM | 3.44 µM | 2.86 µM | > 10 µM | > 10 µM | 1.21 µM | > 10 µM | > 1 µM | 0.626 µM | > 0.001 µM | > 10 µM | > 10 µM | > 3 µM | – | 0.0229 µM | > 1 µM | > 10 µM | > 0.3 µM
NB1 (Neuroblastoma) | > 1 µM | > 1 µM | 0.186 µM | 0.184 µM | > 3 µM | > 1 µM | > 2 µM | 1.36 µM | > 10 µM | > 10 µM | 4.73 µM | 5.18 µM | > 10 µM | > 10 µM | 1.2 µM | > 10 µM | > 1 µM | > 1 µM | > 0.001 µM | > 10 µM | > 10 µM | > 3 µM | > 1 µM | 0.024 µM | > 1 µM | 0.628 µM | > 0.3 µM
MM1S (Plasma Cell Myeloma) | 0.153 µM | > 1 µM | > 1 µM | 0.0301 µM | > 3 µM | > 1 µM | > 2 µM | 0.72 µM | > 10 µM | > 10 µM | 9.52 µM | 0.545 µM | > 10 µM | > 10 µM | 0.207 µM | > 10 µM | 0.347 µM | 0.459 µM | > 0.001 µM | > 10 µM | > 10 µM | 1.69 µM | 0.325 µM | 0.0101 µM | > 1 µM | 6.08 µM | > 0.3 µM
NCI-H2373 (Mesothelioma) | > 1 µM | > 1 µM | > 1 µM | > 1 µM | > 3 µM | > 1 µM | > 2 µM | > 3 µM | > 10 µM | > 10 µM | > 10 µM | > 10 µM | > 10 µM | > 10 µM | 3.52 µM | > 10 µM | > 1 µM | 0.313 µM | > 0.001 µM | > 10 µM | > 10 µM | > 3 µM | > 1 µM | 0.0589 µM | > 1 µM | > 10 µM | > 0.3 µM
